Results published in patent US10428060B2, “PI-kinase inhibitors with anti-infective activity” (The Board of Trustees of the Leland Stanford Junior …, priority 2011, dated 2019).

Columns and labels:
[1] = system: HCV genotype 2a; assay: microbe, parasite or virus in culture; type: cell-based; settings: Hepatitis C virus, Huh7.5, read-out: HCV2a EC50
[2] = system: HRV; assay: Rhinovirus antiviral assay; type: cell-based; settings: Human rhinovirus sp.
[3] = system: Ebola; assay: microbe, parasite or virus in culture; type: cell-based; settings: Zaire ebolavirus, read-out: Ebola EC50
[4] = biological target: T1, PI4KIIIA (Homo sapiens, UniProt P42356); assay: PI4KIIIA kinase assay; type: biochemical
T1 construct: made in house; host or cells: COS-7 cells, transient transfection, anti-HA immunoprecipitate on protein G Sepharose beads
T1 sequence (P42356 whole entry): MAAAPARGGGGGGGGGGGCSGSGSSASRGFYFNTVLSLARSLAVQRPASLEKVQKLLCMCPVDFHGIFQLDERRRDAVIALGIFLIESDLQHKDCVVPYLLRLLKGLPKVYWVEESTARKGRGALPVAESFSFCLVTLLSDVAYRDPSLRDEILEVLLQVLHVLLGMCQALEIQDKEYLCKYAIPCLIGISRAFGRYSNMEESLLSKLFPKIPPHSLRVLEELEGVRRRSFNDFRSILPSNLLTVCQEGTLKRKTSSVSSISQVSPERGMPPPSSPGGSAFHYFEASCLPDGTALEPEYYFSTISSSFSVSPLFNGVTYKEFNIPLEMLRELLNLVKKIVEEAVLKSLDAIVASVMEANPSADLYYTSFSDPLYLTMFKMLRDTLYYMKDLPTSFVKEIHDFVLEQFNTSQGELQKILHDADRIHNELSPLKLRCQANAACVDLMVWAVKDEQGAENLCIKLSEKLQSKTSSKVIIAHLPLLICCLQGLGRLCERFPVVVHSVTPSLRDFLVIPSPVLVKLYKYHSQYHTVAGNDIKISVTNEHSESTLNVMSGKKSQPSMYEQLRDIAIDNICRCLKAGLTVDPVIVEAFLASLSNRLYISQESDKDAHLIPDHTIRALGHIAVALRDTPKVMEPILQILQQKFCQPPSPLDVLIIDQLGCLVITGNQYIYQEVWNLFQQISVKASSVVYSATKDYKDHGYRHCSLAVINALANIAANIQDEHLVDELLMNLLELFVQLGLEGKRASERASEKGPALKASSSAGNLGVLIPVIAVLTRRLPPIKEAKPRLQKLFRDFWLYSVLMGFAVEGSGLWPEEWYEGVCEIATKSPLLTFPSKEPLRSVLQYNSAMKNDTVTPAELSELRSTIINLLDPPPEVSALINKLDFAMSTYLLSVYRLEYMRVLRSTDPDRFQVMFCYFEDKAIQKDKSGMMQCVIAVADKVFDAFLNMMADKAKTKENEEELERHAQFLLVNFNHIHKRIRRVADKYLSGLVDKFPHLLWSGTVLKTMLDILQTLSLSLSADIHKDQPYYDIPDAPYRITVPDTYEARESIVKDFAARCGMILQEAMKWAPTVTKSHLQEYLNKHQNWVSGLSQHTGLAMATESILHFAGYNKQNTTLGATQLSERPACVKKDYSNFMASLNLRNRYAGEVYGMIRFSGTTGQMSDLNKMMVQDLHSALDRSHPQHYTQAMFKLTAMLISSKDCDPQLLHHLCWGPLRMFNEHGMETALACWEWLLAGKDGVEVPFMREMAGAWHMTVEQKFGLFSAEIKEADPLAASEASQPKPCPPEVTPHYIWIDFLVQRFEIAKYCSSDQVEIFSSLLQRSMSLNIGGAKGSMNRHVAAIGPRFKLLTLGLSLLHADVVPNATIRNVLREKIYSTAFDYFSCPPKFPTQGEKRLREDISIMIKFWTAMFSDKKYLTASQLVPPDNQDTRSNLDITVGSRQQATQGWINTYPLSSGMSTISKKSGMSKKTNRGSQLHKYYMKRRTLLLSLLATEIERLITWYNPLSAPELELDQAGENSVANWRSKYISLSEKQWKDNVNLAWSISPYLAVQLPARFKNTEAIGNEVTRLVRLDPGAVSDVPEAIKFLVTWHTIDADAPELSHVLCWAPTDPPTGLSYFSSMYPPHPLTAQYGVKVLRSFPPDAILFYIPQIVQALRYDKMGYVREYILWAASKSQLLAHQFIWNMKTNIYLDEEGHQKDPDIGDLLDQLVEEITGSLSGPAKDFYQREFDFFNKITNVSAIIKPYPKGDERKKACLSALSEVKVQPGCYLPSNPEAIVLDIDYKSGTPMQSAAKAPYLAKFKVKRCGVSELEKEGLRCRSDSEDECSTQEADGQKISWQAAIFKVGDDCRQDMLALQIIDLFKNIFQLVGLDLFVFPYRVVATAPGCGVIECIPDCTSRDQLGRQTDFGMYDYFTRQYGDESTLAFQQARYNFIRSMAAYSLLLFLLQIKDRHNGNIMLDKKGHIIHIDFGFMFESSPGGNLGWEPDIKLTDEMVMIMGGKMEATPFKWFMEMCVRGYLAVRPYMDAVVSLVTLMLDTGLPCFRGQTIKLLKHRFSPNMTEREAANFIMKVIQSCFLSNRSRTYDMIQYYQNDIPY
Protocol: In the assays described here, p110α-p85 complex and p110γ were acquired from Millipore. Assays were performed with Lα-phosphatidylinositol (Avanti) as described in Knight et al. Nat Protoc. 2007; 2 (10):2459-66. Inhibitor series were prepared 10% DMSO as 5× stocks for the assay. Assays of HsVps34 were performed as described in Knight et al, except that the final assay buffer composition used was changed to 20 mM HEPES 7.5, 100 mM NaCl, 3 mM MgCl, 1 mg/mL PI and 44 nM hvps34 was used in the assay. […] COS-7 cells were cultured in 10 cm dishes and transfected at 70% confluence with 10 μg of plasmid DNA (HA-tagged bovine PI4KIIIβ, HA-tagged human PI4KIIIα) using Lipofectamine 2000 and 5 ml Opti-MEM following the manufacturer's instructions. After 5 hours the transfection medium was replaced with 10 ml complete DMEM. 36 hrs post transfection, cells were washed once with 5 ml PBS (pH 7.4) and lysed in 1 ml of lysis buffer (1) on ice. Lysates were collected by scraping and after 15 min they were centrifuged at 13,000 rpm for 10 min. To the lysates was added 200 μl of protein G Sepharose 4 fast flow beads that were prewashed with PBS and lysis buffer and 2 μg of anti-HA antibody. The tubes were then incubated overnight at 4 degrees C. in a tube rotator. The Sepharose beads in the lysate were washed twice with 150 mM NaCl in RIPA buffer, twice with RIPA buffer and once with kinase buffer (50 mM Tris/HCl, pH 7.5, 20 mM MgCl2, 1 mM EGTA, 1 mM PtdIns, 0.4% Triton X-100, 0.5 mg/mL BSA) and finally the beads were resuspended in 200 μL kinase buffer. Kinase reactions were run in a mixture of 45 μL of PI buffer (1 mM PI in kinase buffer), 10 μL of immunoprecipitated beads, 2 µL of inhibitors (dissolved and diluted in DMSO) or DMSO and 5 μL of [γ-^32P]-ATP (1 mM and 2 μCi/tube). The immunoprecipitates in PI buffer were pre-incubated with the drugs for 20 min prior the initiation of kinase reaction by adding ATP and the reactions were carried out for 30 min in 15 ml polypropolyne tubes. […] Samples were counted in a scintillation beta counter after adding 5 ml of Instafluor (Perkin-Elmer). […]

[5] = biological target: T2, PI3K p110g (Homo sapiens, UniProt P48736); assay: PI3K p110g kinase assay; type: biochemical
T2 construct: purchased Millipore
T2 sequence (P48736 whole entry): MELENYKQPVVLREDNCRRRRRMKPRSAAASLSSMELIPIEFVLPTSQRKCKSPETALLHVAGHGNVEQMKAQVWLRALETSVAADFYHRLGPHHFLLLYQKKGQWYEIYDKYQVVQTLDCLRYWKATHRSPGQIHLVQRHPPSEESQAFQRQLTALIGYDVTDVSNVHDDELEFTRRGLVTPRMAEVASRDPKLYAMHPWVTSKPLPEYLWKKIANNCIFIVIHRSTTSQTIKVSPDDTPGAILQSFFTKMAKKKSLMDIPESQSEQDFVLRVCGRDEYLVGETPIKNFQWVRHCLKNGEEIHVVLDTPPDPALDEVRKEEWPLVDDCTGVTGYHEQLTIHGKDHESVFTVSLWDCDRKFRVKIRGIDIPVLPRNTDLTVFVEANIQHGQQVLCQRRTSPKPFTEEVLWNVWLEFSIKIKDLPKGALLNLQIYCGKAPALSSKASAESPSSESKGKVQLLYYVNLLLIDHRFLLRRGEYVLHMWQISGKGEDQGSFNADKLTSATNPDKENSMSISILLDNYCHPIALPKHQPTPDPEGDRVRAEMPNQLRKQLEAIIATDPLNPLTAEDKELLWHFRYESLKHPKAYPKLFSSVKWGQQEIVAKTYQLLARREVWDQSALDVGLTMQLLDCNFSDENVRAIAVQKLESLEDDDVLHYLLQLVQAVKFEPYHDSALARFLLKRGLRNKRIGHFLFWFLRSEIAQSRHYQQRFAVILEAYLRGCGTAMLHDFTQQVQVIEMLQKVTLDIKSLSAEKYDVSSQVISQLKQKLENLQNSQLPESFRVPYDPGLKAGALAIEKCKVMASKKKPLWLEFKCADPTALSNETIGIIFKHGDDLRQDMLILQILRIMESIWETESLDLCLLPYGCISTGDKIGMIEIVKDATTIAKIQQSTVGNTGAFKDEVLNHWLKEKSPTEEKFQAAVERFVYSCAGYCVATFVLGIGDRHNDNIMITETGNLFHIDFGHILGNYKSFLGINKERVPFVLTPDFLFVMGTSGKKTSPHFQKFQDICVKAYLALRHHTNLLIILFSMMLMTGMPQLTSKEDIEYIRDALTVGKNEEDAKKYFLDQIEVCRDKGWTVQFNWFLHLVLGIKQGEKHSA
Protocol: (§1) In the assays described here, p110α-p85 complex and p110γ were acquired from Millipore. Assays were performed with Lα-phosphatidylinositol (Avanti) as described in Knight et al. Nat Protoc. 2007; 2 (10):2459-66. Inhibitor series were prepared 10% DMSO as 5× stocks for the assay. Assays of HsVps34 were performed as described in Knight et al, except that the final assay buffer composition used was changed to 20 mM HEPES 7.5, 100 mM NaCl, 3 mM MgCl, 1 mg/mL PI and 44 nM hvps34 was used in the assay. […] COS-7 cells were cultured in 10 cm dishes and transfected at 70% confluence with 10 μg of plasmid DNA (HA-tagged bovine PI4KIIIβ, HA-tagged human PI4KIIIα) using Lipofectamine 2000 and 5 ml Opti-MEM following the manufacturer's instructions. After 5 hours the transfection medium was replaced with 10 ml complete DMEM. 36 hrs post transfection, cells were washed once with 5 ml PBS (pH 7.4) and lysed in 1 ml of lysis buffer (1) on ice. Lysates were collected by scraping and after 15 min they were centrifuged at 13,000 rpm for 10 min. To the lysates was added 200 μl of protein G Sepharose 4 fast flow beads that were prewashed with PBS and lysis buffer and 2 μg of anti-HA antibody. The tubes were then incubated overnight at 4 degrees C. in a tube rotator. The Sepharose beads in the lysate were washed twice with 150 mM NaCl in RIPA buffer, twice with RIPA buffer and once with kinase buffer (50 mM Tris/HCl, pH 7.5, 20 mM MgCl2, 1 mM EGTA, 1 mM PtdIns, 0.4% Triton X-100, 0.5 mg/mL BSA) and finally the beads were resuspended in 200 μL kinase buffer. Kinase reactions were run in a mixture of 45 μL of PI buffer (1 mM PI in kinase buffer), 10 μL of immunoprecipitated beads, 2 µL of inhibitors (dissolved and diluted in DMSO) or DMSO and 5 μL of [γ-^32P]-ATP (1 mM and 2 μCi/tube). The immunoprecipitates in PI buffer were pre-incubated with the drugs for 20 min prior the initiation of kinase reaction by adding ATP and the reactions were carried out for 30 min in 15 ml polypropolyne tubes. Reactions were terminated by addition of 3 ml of CHCl3:CH3OH:HCl (200:100:0.75) followed by 0.6 ml of 0.6N HCl to induce phase separation. The mixtures were vortexed, centrifuged at 2000 rpm for 2 min and the upper phase was discarded. To the lower phase was added 1.5 ml of CHCl3:CH3OH:0.6N HCl (3:48:47) and the mixture vortexed and centrifuged at 2000 rpm for 2 min. The lower phase was then transferred to counting vials and evaporated. Samples were counted in a scintillation beta counter after adding 5 ml of Instafluor (Perkin-Elmer).
(§2) PI-kinase assay: Compounds are tested in C.1.1. PI kinase assays as described by Shokat et al., “A membrane capture assay for lipid kinase activity.” Nat. Protoc. 2007; 2(10):2459-66.

[6] = biological target: T3, PI4KIIIB (Bos taurus, UniProt O02810); assay: PI4KIIIB kinase assay; type: biochemical, bovine
T3 construct: made in house; host or cells: COS-7 cells, transient transfection, anti-HA immunoprecipitate on protein G Sepharose beads
Protocol: as §1, with “2007; 2 (10):2459-66.” left out, “for” for “for the assay. Assays of HsVps34 were performed as described in Knight et al, except that the final assay buffer composition used was changed to 20 mM HEPES 7.5, 100 mM NaCl, 3 mM MgCl, 1 mg/mL PI and 44 nM hvps34 was used in”, “Lysates were collected by scraping and after 15 min they were centrifuged at 13,000 rpm for 10 min.” left out, “The Sepharose beads in the lysate were washed twice with 150 mM NaCl in RIPA buffer, twice with RIPA buffer and once with kinase buffer (50 mM Tris/HCl, pH 7.5, 20 mM MgCl2, 1 mM EGTA, 1 mM PtdIns, 0.4% Triton X-100, 0.5 mg/mL BSA) and finally the beads were resuspended in 200 μL kinase buffer.” left out
PI-kinase assay: Compounds are tested in C.1.1. PI kinase assays as described by Shokat et al., “A membrane capture assay for lipid kinase activity.” Nat. Protoc.

[7] = biological target: T4, PI3KC2G (Homo sapiens, UniProt O75747); assay: PI3KC2G kinase assay; type: biochemical
T4 sequence (O75747 1-1486): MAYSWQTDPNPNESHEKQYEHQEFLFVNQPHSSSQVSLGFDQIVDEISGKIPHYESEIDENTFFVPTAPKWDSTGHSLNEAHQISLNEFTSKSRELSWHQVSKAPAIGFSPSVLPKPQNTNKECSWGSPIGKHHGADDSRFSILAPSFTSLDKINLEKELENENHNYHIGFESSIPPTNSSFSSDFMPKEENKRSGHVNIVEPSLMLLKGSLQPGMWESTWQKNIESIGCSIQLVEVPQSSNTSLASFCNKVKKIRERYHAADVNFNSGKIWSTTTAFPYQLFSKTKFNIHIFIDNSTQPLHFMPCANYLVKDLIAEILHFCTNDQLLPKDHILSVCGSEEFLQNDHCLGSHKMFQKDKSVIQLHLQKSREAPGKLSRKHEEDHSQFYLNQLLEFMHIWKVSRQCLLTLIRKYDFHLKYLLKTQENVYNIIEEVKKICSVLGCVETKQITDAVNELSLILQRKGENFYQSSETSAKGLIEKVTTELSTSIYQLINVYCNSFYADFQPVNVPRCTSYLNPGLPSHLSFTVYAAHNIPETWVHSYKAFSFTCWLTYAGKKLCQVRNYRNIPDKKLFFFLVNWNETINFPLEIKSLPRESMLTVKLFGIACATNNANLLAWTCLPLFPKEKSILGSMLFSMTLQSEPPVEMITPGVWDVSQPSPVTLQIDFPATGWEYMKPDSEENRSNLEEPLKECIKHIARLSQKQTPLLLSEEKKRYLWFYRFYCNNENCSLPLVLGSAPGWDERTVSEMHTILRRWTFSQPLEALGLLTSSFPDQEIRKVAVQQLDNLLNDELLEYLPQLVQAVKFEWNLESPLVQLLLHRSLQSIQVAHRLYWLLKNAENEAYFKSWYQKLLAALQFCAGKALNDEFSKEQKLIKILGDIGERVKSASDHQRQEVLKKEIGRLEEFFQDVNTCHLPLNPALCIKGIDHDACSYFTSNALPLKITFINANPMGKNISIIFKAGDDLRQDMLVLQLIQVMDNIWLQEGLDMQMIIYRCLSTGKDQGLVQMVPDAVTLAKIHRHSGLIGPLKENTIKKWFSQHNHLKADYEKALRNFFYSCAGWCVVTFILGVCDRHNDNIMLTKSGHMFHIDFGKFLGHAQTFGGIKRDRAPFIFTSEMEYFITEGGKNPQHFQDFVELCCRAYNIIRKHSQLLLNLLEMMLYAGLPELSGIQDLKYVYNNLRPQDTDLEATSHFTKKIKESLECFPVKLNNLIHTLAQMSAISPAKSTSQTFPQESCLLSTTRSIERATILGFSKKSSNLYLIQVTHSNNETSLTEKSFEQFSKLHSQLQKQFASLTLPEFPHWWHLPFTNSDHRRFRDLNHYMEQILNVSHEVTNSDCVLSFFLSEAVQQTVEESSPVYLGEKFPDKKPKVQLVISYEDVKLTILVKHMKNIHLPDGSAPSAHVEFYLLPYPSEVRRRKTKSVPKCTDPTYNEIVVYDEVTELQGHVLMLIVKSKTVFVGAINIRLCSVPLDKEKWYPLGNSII

[8] = system: Norovirus; assay: Norovirus antiviral assay; type: cell-based
[9] = biological target: PI3KC2B (Homo sapiens, UniProt O00750); assay: PI3KC2B kinase assay; type: biochemical
PI3KC2B, sequence (O00750 whole entry): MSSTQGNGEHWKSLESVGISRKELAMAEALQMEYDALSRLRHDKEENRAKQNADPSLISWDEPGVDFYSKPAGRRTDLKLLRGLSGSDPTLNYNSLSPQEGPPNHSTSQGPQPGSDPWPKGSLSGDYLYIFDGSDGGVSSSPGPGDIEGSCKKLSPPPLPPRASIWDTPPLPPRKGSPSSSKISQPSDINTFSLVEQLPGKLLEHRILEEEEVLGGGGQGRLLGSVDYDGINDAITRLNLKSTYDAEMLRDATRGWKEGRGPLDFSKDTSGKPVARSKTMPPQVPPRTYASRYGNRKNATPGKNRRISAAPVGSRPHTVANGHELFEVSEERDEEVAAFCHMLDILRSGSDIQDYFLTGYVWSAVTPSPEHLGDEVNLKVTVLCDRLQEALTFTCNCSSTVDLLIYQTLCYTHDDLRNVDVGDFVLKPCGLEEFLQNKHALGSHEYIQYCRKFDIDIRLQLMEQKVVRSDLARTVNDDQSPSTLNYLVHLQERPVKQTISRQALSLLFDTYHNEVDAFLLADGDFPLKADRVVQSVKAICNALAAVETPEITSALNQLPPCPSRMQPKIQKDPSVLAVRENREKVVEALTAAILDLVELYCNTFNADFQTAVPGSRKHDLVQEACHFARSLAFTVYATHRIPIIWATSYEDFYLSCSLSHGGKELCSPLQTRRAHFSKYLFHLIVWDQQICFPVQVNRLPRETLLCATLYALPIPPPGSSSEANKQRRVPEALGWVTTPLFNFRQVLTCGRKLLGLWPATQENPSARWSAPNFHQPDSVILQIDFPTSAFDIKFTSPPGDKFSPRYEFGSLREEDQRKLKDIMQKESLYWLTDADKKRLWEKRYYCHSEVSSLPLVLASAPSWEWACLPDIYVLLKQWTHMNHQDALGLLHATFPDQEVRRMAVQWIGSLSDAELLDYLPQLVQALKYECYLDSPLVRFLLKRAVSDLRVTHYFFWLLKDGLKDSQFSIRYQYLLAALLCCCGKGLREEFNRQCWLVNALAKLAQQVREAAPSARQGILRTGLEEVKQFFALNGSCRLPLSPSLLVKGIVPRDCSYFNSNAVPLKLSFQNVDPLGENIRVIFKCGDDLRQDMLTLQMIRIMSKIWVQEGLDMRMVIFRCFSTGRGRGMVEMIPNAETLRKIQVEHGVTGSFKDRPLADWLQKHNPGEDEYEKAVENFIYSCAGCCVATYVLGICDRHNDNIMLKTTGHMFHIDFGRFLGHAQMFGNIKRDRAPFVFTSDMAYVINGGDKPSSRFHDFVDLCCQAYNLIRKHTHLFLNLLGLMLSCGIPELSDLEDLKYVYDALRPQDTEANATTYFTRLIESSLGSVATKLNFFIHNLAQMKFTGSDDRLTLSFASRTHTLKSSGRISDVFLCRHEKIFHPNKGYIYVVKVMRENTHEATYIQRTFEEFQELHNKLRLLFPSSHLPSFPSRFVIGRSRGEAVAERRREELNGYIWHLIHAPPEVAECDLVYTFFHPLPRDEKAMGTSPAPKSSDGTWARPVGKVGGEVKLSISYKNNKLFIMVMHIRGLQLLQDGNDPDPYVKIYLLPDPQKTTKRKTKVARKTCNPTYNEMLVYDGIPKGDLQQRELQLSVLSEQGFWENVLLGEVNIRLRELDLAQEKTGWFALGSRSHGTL
Protocol: as §2

[10] = system: EV71; assay: EV71 antiviral assay; type: cell-based; settings: Enterovirus A
[11] = system: HCV replicon; assay: Resistance selection in HCV replicon system; type: cell-based

SMILES | EC50 [1] [nM] | EC50 [2] [nM] | EC50 [3] [nM] | IC50 [4] [nM] | IC50 [5] [nM] | IC50 [6] [nM] | IC50 [7] [nM] | EC50 [8] [nM] | IC50 [9] [nM] | EC50 [10] [nM] | Selection of resistance [11]
COc1ccc(-c2sc(NCC3CCCCC3)nc2C)cc1S(=O)(=O)Nc1cccc(C(C)(C)C)c1 [Compound S-32, N-(3-tert-butylphenyl)-5-[2-(cyclohexylmethylamino)-4-methyl-thiazol-5-yl]-2-methoxy-benzenesulfonamide; 2,2,2-trifluoroacetic acid] | 1000 to 10000 | < 1 | 1000 to 10000 |  |  |  |  |  |  |  | 
COc1ccc(-c2sc(NCCC3CCCCC3)nc2C)cc1S(=O)(=O)NC1CCC(O)C1 (centres unmarked) [Compound S-214, 5-[2-(2-cyclohexylethylamino)-4-methyl-thiazol-5-yl]-N-(3-hydroxycyclopentyl)-2-methoxy-benzenesulfonamide] |  |  |  | > 10000 | > 10000 | 100 to 1000 | > 10000 |  |  |  | 
COc1ccc(-c2sc(NC(=O)CC3CCOCC3)nc2C)cc1S(=O)(=O)Nc1ccc(O)cc1 [Compound S-227, N-[5-[3-[(4-hydroxyphenyl)sulfamoyl]-4-methoxy-phenyl]-4-methyl-thiazol-2-yl]-2-tetrahydropyran-4-yl-acetamide] | 1 to 100 | 1 to 100 | 100 to 1000 |  | > 10000 |  |  | 100 to 1000 | > 10000 | < 1 | 
COc1ccc(-c2sc(NC(=O)C3CCCC3)nc2C)cc1S(=O)(=O)Nc1ccc(O)cc1 [PT423] |  |  |  |  |  |  |  |  |  |  | resistance was not able to be selected
COc1ccc(-c2sc(NC3CCCCCC3)nc2C)cc1S(=O)(=O)Nc1c(C)cccc1C [Compound S-98, 5-[2-(cycloheptylamino)-4-methyl-thiazol-5-yl]-N-(2,6-dimethylphenyl)-2-methoxy-benzenesulfonamide; 2,2,2-trifluoroacetic acid] | 1000 to 10000 | < 1 |  |  | > 10000 |  |  | 1000 to 10000 |  | < 1 | 
